Consider one compound from publication PMC11940214, “The Antimicrobial Peptide D-CONGA-Q7 Eradicates Drug-Resistant E. coli by Disrupting Bacterial Cell Membranes” (Biology, 2025).

≈ marks a conversion by molar mass, not a printed value. Where a SMILES comes first, the peptide text is derived from it. [ ]: non-standard residue; d: D form.

As usually defined, the IC50 is the concentration needed to halve the response being measured. What is called MIC is the lowest concentration that inhibits growth of the organism. A lower MIC goes with inhibition by little substance.

The test system of data set [1] is multidrug-resistant E. coli strains. Format: cell-based, Escherichia coli.
Protocol: (§1) The bacterial strains used in this study, including LN175, J27ab-2, K88, AD21R, and 21f54mr-1, were E. coli obtained from the Hunan Veterinary Engineering Research Center (Changsha, Hunan Province). Except for K88, all the strains were multidrug-resistant and carried multiple resistance genes, while K88 was a diarrhea-causing strain containing the ETEC gene.
(§2) The bacterial concentration was adjusted to 1 × 10^5 CFU/mL using a turbidimeter. Then, 100 μL of Mueller–Hinton Broth (MHB) broth was added to wells 1–11 of a 96-well plate, while 200 μL was added to well 12. Then, 100 μL of the drug was added to wells 1–11, which was followed by 100 μL of the bacterial suspension. Results were observed after incubation at 37 °C for 16–24 h.
The next data set in a line: in vitro. The settings on record: pig. Format: cell-based, porcine. The protocol: Porcine small intestinal epithelial cells (IPEC-J2) were cultured in DMEM-F12 medium supplemented with 10% fetal bovine serum (TransGen Biotech, Beijing, China) and 1% penicillin–streptomycin (Beyotime Biotechnology, Shanghai, China). The cells were maintained in a humidified incubator at 37 °C with 5% CO2. Cells were passaged using 0.25% trypsin solution containing ethylenediaminetetraacetic acid (EDTA). Cells were seeded into 96-well plates at a density of 1 × 10⁴ cells per well. After 48 h, they were treated with varying concentrations of D-CONGA-Q7 and incubated with CCK-8 (Beyotime Biotechnology, Shanghai, China) for 1 h. The assay was measured using a […].

A further data set deals with erythrocyte. The settings on record: cited from earlier work. The text has this:
D-CONGA was originally screened from a library of 28,000 peptides using high-throughput synthesis principles and host cell compatibility. […] This study explored the antimicrobial mechanis ...

The subject of data set [2] is E. coli LN175 (mcr-1,NDM). Format: cell-based, Escherichia coli.
Protocol: as §1, §2
Data set [3] deals with E. coli strain LN175, K88, J27ab-2. As to the kind of experiment: Thermal and acid-base stability, read out as change in MIC. Format: physicochemical, Escherichia coli. The settings on record: 1.024 mg/mL solution, then adjusted back. The protocol:
For thermal stability, the D-CONGA-Q7 was prepared as a 1.024 mg/mL solution and heated in a water bath at room temperature, 60, 65, 70, 75, 80, 90 and 100 °C for 1 h, and autoclaved at 121 °C for 15 min and then cooled to room temperature, respectively. Acid–base stability, 1.024 mg/mL of D-CONGA-Q7 solution was used to adjust its pH to 2–12 using HCl and NaOH, and the pH of each tube was adjusted back to the initial tube pH after 1 h. The adjustment of solution pH = 3.89 (pH = 3.89 is the pH of D-CONGA-Q7 itself when dissolved) included the above use of the untreated samples as a control.
The antimicrobial activity of D-CONGA-Q7 was evaluated by assessing changes in its MIC against strain LN175, K88, J27ab-2.

As to `CC(C)C[C@@H](NC(=O)[C@@H](CCC(N)=O)NC(=O)[C@@H](CCCNC(=N)N)NC(=O)[C@@H](CCCNC(=N)N)NC(=O)[C@@H](C)NC(=O)[C@@H](Cc1c[nH]c2ccccc12)NC(=O)[C@@H](CCCNC(=N)N)NC(=O)[C@H](N)CCCNC(=N)N)C(=O)N[C@H](C)C(=O)N[C@H](Cc1ccccc1)C(=O)N[C@H](C)C(=O)N[C@H](Cc1ccccc1)C(=O)N[C@H](CCCNC(=N)N)C(=O)N[C@H](CCCNC(=N)N)C(N)=O` [D-CONGA-Q7] (H-[dR][dR][dW][dA][dR][dR][dQ][dL][dA][dF][dA][dF][dR][dR]-NH2), the “MIC values for all strains tested” value in data set [1] was “less than or equal to 4 μg/mL”. Inhibition in the data set “in vitro” was half-maximal at 188 µg/mL (≈ 99.8 µM) (IC50). The erythrocyte hemolytic activity result with erythrocyte is listed as “minimal erythrocyte hemolytic activity”. Besides, in data set [2], the MIC came to 4 µg/mL (≈ 2.12 µM). Also, the “antimicrobial activity after exposure to pH 12 (acid-base stability)” value in data set [3] (pH 12, 1 h, read-out MIC) was “reduction in activity”. Besides, the “antimicrobial activity after exposure to pH 2 to 11 (acid-base stability)” value in data set [3] (pH between 2 and 11 with HCl/NaOH, 1 h, read-out MIC against LN175, K88, J27ab-2) is on record as “retained its antimicrobial activity”.
